Data taken from patent publication US20140235776A1, “AMINOALCOHOL COMPOUNDS AND THEIR USE AS ZERO OR LOW VOC ADDITIVES FOR PAINTS AND COATINGS” (ANGUS CHEMICAL COMPANY, priority 2011, published 2014).
Read-outs that look alike come from different tables or passages of the source.

Legend:
Type in all cases: physicochemical
[1] = pKa of neutralizing amines
[2] = VOC testing according to ASTM D6886-rev (gas chromatography); settings: neutralizer in a finished paint formulation, GC conditions of Table 2
Method: VOC properties are tested according to the ASTM D6886-rev method.

[3] = Freeze-thaw cycles of paint samples, viscosity by Krebs Stormer Viscometer; settings: for Viscosity after Freeze-Thaw cycles (KU), 2nd cycle / Viscosity after Freeze-Thaw cycles (KU), 3rd cycle / Viscosity after Freeze-Thaw cycles (KU), 4th cycle / Viscosity after Freeze-Thaw cycles (KU), 5th cycle / Viscosity after Freeze-Thaw cycles (KU), 1st cycle: additive 2 wt %; for Initial Viscosity (KU): additive 2 wt % post-add in paint of Table 8, before freeze-thaw; for Viscosity after Freeze-Thaw cycles (KU), 1st cycle: cycle = −18° C. 17 hours, 25° C. 7 hours; for freeze-thaw survival of paint sample (in words): added as post-add, 2 wt %
Method: Preparation of paint formulations containing compounds of the invention: The paint formulations are prepared using F/T agent 1 and 2 as shown by structures below. The octanol water partition coefficients are calculated for these compounds using the method of Moriguchi et al., Chem. Pharm. Bull. 40(1), 127-130 (1992). The calculated octanol-water partition coefficients for F/T-1 and F/T-2 are −2.59, and −3.99, respectively. […] Paint samples are frozen at −18° C. for 17 hours and then thawed at 25° C. for 7 hours. This constitutes 1 complete freeze-thaw cycle. Viscosities are measured after each freeze-thaw cycle using a Krebs Stormer Viscometer from Sheen at room temperature. The viscosity is measured in Krebs unit (KU). The results of freeze-thaw cycles on paint samples that contain zero-VOC compounds of the invention as post-adds are listed in the Table 9. The post-add compounds are mixed at 2 wt % in the paint samples. The same paint formulation is used in preparing all the samples. The paint sample without any post-add is designated as “Blank.”
The KU values below 150 as reported in Table 9 are considered acceptable, and all the values (other than that for the Blank) reported are considered very acceptable.

[4] = Krebs-units (KU) low shear viscosity of paint, ASTM D562
Method: (§1) The pH of each formulation is measured with a digital pH meter with a glass combination pH probe. Krebs-units (KU) viscosity is measured with Brookfield model KU viscometer with digital display (ASTM D562), at 25° C. The high shear (“ICI”) viscosity is measured according to ASTM D 4287 using a Brookfield CAP 1000+ viscometer at a shear rate of 12,000 s^−1 at 900 rpm, with a 0.45° cone of radius 1.511 cm, and a sample temperature controlled at 25° C.

[5] = High shear (ICI) viscosity of paint, ASTM D 4287; settings: in P (unit assumed)
Method: as §1

[6] = pH of paint formulation (digital pH meter); settings: for pH: Zero VOC Flat Formulation, vinyl acrylic latex; for pH, 1 day 25° C.: Zero VOC Semi Gloss Formulation, acrylic latex
Method: pH, Low Shear and High Shear Viscosity.
The pH of each formulation is measured with a digital pH meter with a glass combination pH probe. Krebs-units (KU) viscosity is measured with Brookfield model KU viscometer with digital display (ASTM D562), at 25° C.

[7] = read-out: pKa (first value, pK1)
[8] = read-out: pKa (second value, pK2)
[9] = Zero VOC Semi Gloss Formulation

OCC(O)CNCCN(CCNCC(O)CO)CC(O)CO (centres unmarked) [DETA Glyc, 3,3′-((((2,3-dihydroxypropyl)azanediyl)bis(ethane-2,1-diyl))bis(azanediyl))bis(propane-1,2-diol)]
pKa [1, 7]: 8.9 | pKa [1, 8]: 4.6 | VOC contributed by neutralizers [2]: 0%^2

OCCOCCO [Diethylene Glycol, diethylene glycol, reference compound]
Viscosity after Freeze-Thaw cycles (KU), 2nd cycle [3]: 105.1 KU | Viscosity after Freeze-Thaw cycles (KU), 3rd cycle [3]: 106.9 KU | Viscosity after Freeze-Thaw cycles (KU), 4th cycle [3]: 100.6 KU | Viscosity after Freeze-Thaw cycles (KU), 5th cycle [3]: 98 KU | Initial Viscosity (KU) [3]: 91.0 KU | Viscosity after Freeze-Thaw cycles (KU), 1st cycle [3]: 101.1 KU

CC(C)(N)CNCCOCCOCCNCC(C)(C)N [EDBDA bis-AMP, N1,N1′-((ethane-1,2-diylbis(oxy))bis(ethane-2,1-diyl))bis(2-methylpropane-1,2-diamine), reference compound]
pKa [1, 7]: 9.7 | pKa [1, 8]: 5.8 | VOC contributed by neutralizers [2]: 0%^2

OCC(O)CNCCN(CCNCC(O)CO)CC(O)CO (centres unmarked) [F/T Agent 1, 3,3′-((((2,3-dihydroxypropyl)azanediyl)bis(ethane-2,1-diyl))bis(azanediyl))bis(propane-1,2-diol)]
freeze-thaw survival of paint sample (in words) [3]: survive five freeze-thaw cycles | Viscosity after Freeze-Thaw cycles (KU), 2nd cycle [3]: 111.1 KU | Viscosity after Freeze-Thaw cycles (KU), 3rd cycle [3]: 112.7 KU | Viscosity after Freeze-Thaw cycles (KU), 4th cycle [3]: 111.8 KU | Viscosity after Freeze-Thaw cycles (KU), 5th cycle [3]: 109.5 KU | Initial Viscosity (KU) [3]: 89.5 KU | Viscosity after Freeze-Thaw cycles (KU), 1st cycle [3]: 108 KU

OCC(O)CN(CCN(CC(O)CO)CC(O)CO)CCN(CC(O)CO)CC(O)CO (centres unmarked) [F/T Agent 2, 3,3′,3″,3′′′-((((2,3-dihydroxypropyl)azanediyl)bis(ethane-2,1-diyl))bis(azanetriyl))tetrakis(propane-1,2-diol)]
freeze-thaw survival of paint sample (in words) [3]: survive five freeze-thaw cycles | Viscosity after Freeze-Thaw cycles (KU), 2nd cycle [3]: 113.1 KU | Viscosity after Freeze-Thaw cycles (KU), 3rd cycle [3]: 114 KU | Viscosity after Freeze-Thaw cycles (KU), 4th cycle [3]: 121.7 KU | Viscosity after Freeze-Thaw cycles (KU), 5th cycle [3]: 116.3 KU | Initial Viscosity (KU) [3]: 88.2 KU | Viscosity after Freeze-Thaw cycles (KU), 1st cycle [3]: 110.4 KU

[Na+].[OH-] [NaOH, sodium hydroxide, reference compound]
KU Viscosity, 1 day 25° C. ([4]; Zero VOC Flat Formulation): 86 KU | KU Viscosity, 1 day 25° C. [4, 9]: 89.1 KU | ICI Viscosity, 1 day 25° C. ([5]; Zero VOC Flat Formulation): 1.184 | ICI Viscosity, 1 day 25° C. [5, 9]: 1.059 | pH [6]: 8.56 | pH, 1 day 25° C. [6]: 9.47

CC(O)CO (centres unmarked) [Propylene Glycol, propylene glycol, reference compound]
Viscosity after Freeze-Thaw cycles (KU), 2nd cycle [3]: 103.2 KU | Viscosity after Freeze-Thaw cycles (KU), 3rd cycle [3]: 115.1 KU | Viscosity after Freeze-Thaw cycles (KU), 4th cycle [3]: 99.4 KU | Viscosity after Freeze-Thaw cycles (KU), 5th cycle [3]: 98.2 KU | Initial Viscosity (KU) [3]: 89.8 KU | Viscosity after Freeze-Thaw cycles (KU), 1st cycle [3]: 101.3 KU

CC(O)CNCCN(CCNCCN(CCNCC(C)O)CC(C)O)CC(C)O (centres unmarked) [TEPA 4PO, 7,13-bis(2-hydroxypropyl)-4,7,10,13,16-pentaazanonadecane-2,18-diol]
pKa [1, 7]: 8.7 | pKa [1, 8]: 4.8 | VOC contributed by neutralizers [2]: 0%^2

CC(O)CNCCNCCN(CCNCC(C)O)CC(C)O (centres unmarked) [TETA 3PO, 7-(2-hydroxypropyl)-4,7,10,13-tetraazahexadecane-2,15-diol]
KU Viscosity, 1 day 25° C. ([4]; Zero VOC Flat Formulation): 92.8 KU | KU Viscosity, 1 day 25° C. [4, 9]: 85.9 KU | ICI Viscosity, 1 day 25° C. ([5]; Zero VOC Flat Formulation): 1.29 | ICI Viscosity, 1 day 25° C. [5, 9]: 1.018 | pH [6]: 8.51 | pH, 1 day 25° C. [6]: 9.46
